Measured values taken from patent US12595269B2, “Morpholine-like monoamine releasers” (Solvonis Therapeutics Ireland Holdings Limited, priority 2022, dated 2026).
Where two headings read alike, the source gives them in different places.

Tests used:
[1] = test system: extracellular dopamine (DA), serotonin (5-HT), and noradrenaline (NE) levels in the nucleus accumbens; test: In vivo microdialysis of monoamines in rat nucleus accumbens after intraperitoneal administration; parameters: species or system Sprague Dawley rats; details: rat NAcc microdialysis, IP
Description: Methods and Procedure: This study was conducted in compliance with previously described procedures to assure data integrity, adherence to GLP regulations, and standard preclinical study and surgery procedures. The in vivo microdialysis technique was applied to measure the over-time variations of DA, 5-HT, and NE extracellular (EC) concentrations in conscious, freely-moving Sprague Dawley rats. Levels of the neurotransmitters in microdialysis samples were determined using LC-MS/MS analysis. The experiment was also conducted with MDMA, which was used for comparative purposes.
As it relates to cannula implantation, the rats were anesthetized with isoflurane 4% in oxygen (2-2.5 L/min), then the isoflurane concentration 2-2.5% was maintained via a nose cone adapted to the stereotaxic apparatus. The rats were treated with meloxicam (0.2 mg/kg, subcutaneously, sc; Meloxidolor) and amoxicilline (150 mg/kg, sc, Betamox LA). The skull was then shaved and disinfected. Rats were then placed in a stereotaxic apparatus for small animals. One vertical guide cannula was inserted through a 1 mm hole drilled on the exposed skull. Coordinates—with respect to bregma—to target specific brain areas, followed indications from stereotaxic atlas of the rat brain. Specifically a guide cannula (MAB 4.12.IC, Agn Tho's AB, Lidingo, Sweden) was inserted in the NAcc (anteroposterior+1.6; lateral −1.6; dorsoventral −6.0). The guide cannula was then secured with dental cement and 2-4 screws. At the end of the surgery the animal was isolated in a single cage during recovery, for a period of at least one week, during which animal health conditions were checked twice daily and the weight recorded twice a week. Animals continued to be housed singly throughout the experiment. One day before the experiment the cannula stylet was removed and a microdialysis probe with a dialyzing length of 2 mm (MAB 4.12.2 Cu, Agn Tho's AB, Lidingo, Sweden) was inserted. Probes can be re-used 2 times for 2 experimental sessions after appropriate cleaning with fresh milliQ water.
Post-surgery, the rats were maintained in a heating chamber prior to waking up in order to avoid hypothermia that could be caused by anaesthesia. 5 mL of physiologic solution was subcutaneously administered immediately after surgery, and once/day for 2-3 days, if signs of dehydration are noticed. Meloxicam (Meloxidolor) 0.2 mg/kg was again administered subcutaneously the day after surgery as well as after 48h after surgery together with Amoxicilline Long Acting (Betamox LA) 150 mg/kg. Health status and body weight was checked every day during the first week.
The animals were treated with test compounds described herein, MDMA, or their vehicle (saline) according to a Latin square design over 5 separate experimental days (one day/week). The treatments were administered in a volume of 1 mL/kg intraperitoneally.
On the day of the experiment, each animal was taken into the laboratory in its home cage. Inlet tubing of the probe was attached to a dual quartz-lined two channel liquid swivel mounted on a low mass spring counterbalance arm which, in turn, was connected to a gas-tight syringe on a microinfusion pump. […] An equilibration period of about two hours of perfusion was allowed before collecting samples. Following the equilibration period, 4 basal samples were collected for each experimental animal followed by further 10 post-treatment samples. Samples were collected every 20 minutes (up to 3 hours and 20 minutes post-treatment) by means of a refrigerated auto-sampler (Univentor 820 Microsampler, Agn tho's, Sweden) maintained at +8° C. At the end of all experimental sessions, 2 μL of 0.1% methylene blue solution was injected through the microdialysis probe, animals were euthanized, and their brains removed to confirm the correct probe-position.
The concentrations of DA, 5-HT and NE in CSF samples were determined using an optimized method based on LC-MS/MS analysis. […]

[2] = target: T1, human 5-HT2A receptor (Homo sapiens, UniProt P28223); test: Intracellular calcium response (FLIPR) in CHO cells expressing human 5-HT2A receptor, agonist and antagonist modes; format: cell-based
T1 construct: expressed in transfected cells; host or cells: CHO
T1 sequence (P28223 whole entry): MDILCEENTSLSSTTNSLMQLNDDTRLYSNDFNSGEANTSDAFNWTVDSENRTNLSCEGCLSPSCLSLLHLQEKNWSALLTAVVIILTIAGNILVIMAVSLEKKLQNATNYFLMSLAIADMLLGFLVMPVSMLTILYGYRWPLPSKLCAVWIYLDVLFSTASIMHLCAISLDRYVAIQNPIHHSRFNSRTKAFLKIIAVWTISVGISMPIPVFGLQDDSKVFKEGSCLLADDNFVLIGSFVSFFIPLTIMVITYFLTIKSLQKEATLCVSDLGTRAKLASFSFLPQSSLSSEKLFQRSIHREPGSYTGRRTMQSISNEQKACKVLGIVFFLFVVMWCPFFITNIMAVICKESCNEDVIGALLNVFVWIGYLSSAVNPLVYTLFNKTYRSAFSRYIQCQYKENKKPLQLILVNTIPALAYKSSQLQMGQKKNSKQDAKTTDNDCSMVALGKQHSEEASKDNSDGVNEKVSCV
Description: Methods and Procedure: Selectivity for the 5-HT2A receptor was assessed by measuring [Ca^2+]; in a CHO recombinant cell line stably expressing the human 5-HT2A receptor, using Fluorometric Imaging Plate Reader (FLIPR TETRA, Molecular Devices).
The day before the experiment, CHO cells were seeded into clear-bottom 384-well plates at a density of 10,000 cells per well, in F-12K Medium (ThermoFisher #21127) supplemented with 10% dialyzed fetal bovine serum, and grown overnight at 37° C., 5% CO2.
On the day of the experiment, the medium was replaced with assay buffer (20 mM HEPES, 145 mM NaCl, 5 mM KCl, 5.5 mM glucose, 1 mM MgCl2, 2 mM CaCl2 and 2.5 mM probenecid, pH 7.4) containing the cytoplasmic Ca^2+ indicator Fluo-4 AM at 2 μM and 0.02% Pluronic F-127. After an incubation of 45-60 minutes at 37° C., 0% CO2, cells were washed by Microplate Washer (BIOTEK) 384 with assay buffer, and the plate was transferred in the FLIPR TETRA. Then, intracellular fluorescence was measured in real time by FLIPR TETRA (excitation wavelength at 470-495 nm, emission wavelength at 515-575 nm), using a dual addition protocol.
In the first addition, test compounds (11 points of 1:4 serial dilution, 0.5% DMSO final) were added to the cell plate to evaluate their effect on intracellular calcium levels. In the event of a response, the signal was elaborated for the determination of pEC50/EC50 values. […] Inhibition of 5-HT response vs. vehicle effect (0.5% DMSO) was elaborated for the determination of pIC50/IC50 values. […] A CRC of ketanserin was used as the internal antagonist control.

## Clc1ccc(C23CNC(CO2)C3)cc1Cl (stereo not drawn) [522A, 1-(3,4-dichlorophenyl)-2-oxa-5-azabicyclo[2.2.1]heptane]
[1]; 20 min post-administration
  5HT level relative to baseline levels (100%): 100%
  DA level relative to baseline levels (100%): 100%
  NE level relative to baseline levels (100%): 130%
[1]; 40 min post-administration
  5HT level relative to baseline levels (100%): 380%
  DA level relative to baseline levels (100%): 160%
  NE level relative to baseline levels (100%): 150%
[1]; 60 min post-administration
  5HT level relative to baseline levels (100%): 480%
  DA level relative to baseline levels (100%): 185%
  NE level relative to baseline levels (100%): 160%
[1]; 200 min post-administration
  5HT level relative to baseline levels (100%): 200%
  DA level relative to baseline levels (100%): 125%
  NE level relative to baseline levels (100%): 125%
[2]; agonist mode, CHO cells, calcium response, read-out: 5-HT2A agonist selectivity (pEC50) (converted)
  EC50: 50.1 µM
[2]; antagonist mode, versus serotonin EC80, read-out: 5-HT2A antagonist selectivity (represented as pEC50) (converted)
  EC50: 3.98 µM

## CNC(C)Cc1ccc2c(c1)OCO2 (stereo not drawn) [MDMA, reference compound]
[1]; 20 min post-administration
  5HT level relative to baseline levels (100%): 130%
  DA level relative to baseline levels (100%): 120%
  NE level relative to baseline levels (100%): 120%
[1]; 40 min post-administration
  5HT level relative to baseline levels (100%): 2150%
  DA level relative to baseline levels (100%): 400%
  NE level relative to baseline levels (100%): 500%
[1]; 60 min post-administration
  DA level relative to baseline levels (100%): 560%
  NE level relative to baseline levels (100%): 500%
[1]; 200 min post-administration
  5HT level relative to baseline levels (100%): 900%
  DA level relative to baseline levels (100%): 300%
  NE level relative to baseline levels (100%): 300%
[2]; 5-HT2A agonist selectivity (pEC50), agonist mode, CHO cells, calcium response
  EC50: > 50.1 µM
[2]; 5-HT2A antagonist selectivity (represented as pEC50), antagonist mode, versus serotonin EC80
  EC50: > 50.1 µM
